For 26 compounds, IC50 results are on record in patent US20230391785A1, “NITROGEN-CONTAINING HETEROCYCLIC COMPOUND, METHOD FOR PREPARING SAME AND USE OF SAME” (280 Bio, Inc., priority 2021, published 2023).

What all share (assay type): cell-based
Test [1] relates to A375 wild type malignant melanoma cell line. Kind of test: Proliferation inhibition measured by CTG (CellTiter Glo), A375. The settings on record: Homo sapiens, A-375, CTG, 120 hours incubation. The source says:
(§1) NCI-H358 is a human non-small cell lung cancer cell line with KRAS G12C mutation; PANC-1 and AsPC-1 are pancreatic cancer cell lines with KRAS G12D mutation; AGS is a gastric cancer cell line with KRAS G12D mutation; A427 is a lung cancer cell line with KRAS G12D mutation; THP-1 is a leukemia cell line with NRAS G12D mutation; Hs 578T is a breast cancer cell line with HRAS G12D mutation; SW480 is a colon cancer cell lines with KRAS G12V mutation; A375 is a wild type malignant melanoma cell line. The proliferation inhibitory effect of the compounds on various mutations was evaluated by determining the proliferation inhibitory activity of the compounds on these cell lines.
(§2) The assay was conducted on either 384-well plates or 96-well plates. The procedures are as follows:
(§3) The cell suspensions were added to 384- or 96-well plates (384-well plate: 40 μL; 96-well plate: […]) except for peripheral wells. The plates were incubated in a carbon dioxide incubator overnight. Prepared compounds (10 concentration gradients by serial 3-fold dilution) were added to the wells. The cell plates were incubated in a carbon dioxide incubator for 120 hours. CellTiter Glo reagent (384 well plate: 25 μL; 96 well plate: 100 μL) was added to the 384- or 96-well plates. The plates were shaken for 10 minutes away from light, and incubated for 10 minutes. The plates were read by EnVision system. Inhibition curves were plotted using XLFit and IC50 values were calculated. “IC50>10 μM” is denoted by “*”, “10 μM≥IC50>1 μM” is denoted by “**”, “1 μM≥IC50>100 nM” is denoted by “***”, and “IC50≤100 nM” is denoted by “****”.
On the technique in general: ATP-based viability assays read luminescence as a measure of living cells.

Test [2] relates to SW480 colon cancer cell line (KRAS G12V mutation). Nature of the test: Proliferation inhibition measured by CTG (CellTiter Glo), SW480. The settings on record: Homo sapiens.
Excerpt: as §1, §2, §3

Test [3] deals with AGS gastric cancer cell line (KRAS G12D mutation). Nature of the test: Proliferation inhibition measured by CTG (CellTiter Glo), AGS. The settings on record: CTG, 120 hours incubation.
Excerpt: as §1, §2, §3

Test [4] relates to NCI-H358 cells (KRAS G12C mutation). Nature of the test: Proliferation inhibition measured by CTG (CellTiter Glo), NCI-H358. The settings on record: Homo sapiens, 120 hours incubation.
Excerpt: as §1, §2, §3

Where [5] appears, read: Table 3, class symbol, read-out: IC50 (A375).
[6] abbreviates: Table 3, 120 hours incubation, class symbol, read-out: IC50 (SW480).
Setting [7] is: Table 3, class symbol, read-out: IC50 (AGS).
Where [8] appears, read: Table 3, CTG, class symbol, read-out: IC50 (H358).
[9] abbreviates: Table 2, read-out: IC50 A375 (wide type).
Where [10] appears, read: Table 2, read-out: IC50 AGS (G12D).
Setting [11] is: Table 2, CTG, read-out: IC50 H358 (G12C).
Setting [12] is: Table 1, class symbol, read-out: IC50 (A375).
[13] abbreviates: Table 1, class symbol, read-out: IC50 (AGS).
[14] abbreviates: Table 1, CTG, class symbol, read-out: IC50 (H358).

Read-outs that look alike come from different tables or passages of the source.

For orientation: IC50 means the concentration that gives 50% inhibition. Regarding `C[C@@H]1Cn2cncc2CN1c1nc(O[C@@H]2CCCN(C)C2)nc2c1CCN(c1cccc3cccc(Cl)c13)C2` [Compound 60], the IC50 in test [1] (setting [5]) lay in the range of 1000 to 10000 nM; in test [2] (setting [6]), 100 to 1000 nM; in test [3] (setting [7]), 100 to 1000 nM; in test [4] (setting [8]), 100 to 1000 nM.
With `CN1CCC[C@H]1COc1nc2c(c(N3CCn4c(cnc4-c4ccccc4)C3)n1)CCN(c1cccc3cccc(Cl)c13)C2` [Compound 50], the half-inhibitory concentration (IC50) in test [1] (setting [5]), in test [2] (setting [6]), in test [3] (setting [7]) and in test [4] (setting [8]) was 1000 to 10000 nM each time.
On to `CN1CCC[C@H]1COc1nc2c(c(N3CCn4cnc(C(N)=O)c4C3)n1)CCN(c1cccc3cccc(Cl)c13)C2` [Compound 52], for which the half-maximal inhibitory concentration (IC50) is 1000 to 10000 nM in test [1] (setting [5]), 1000 to 10000 nM in test [2] (setting [6]), 100 to 1000 nM in test [3] (setting [7]) and 100 to 1000 nM in test [4] (setting [8]).
On to `CCc1ccc(NC(=O)Oc2cc(N3CCc4c(nc(OC[C@@H]5CCCN5C)nc4N4Cc5c(F)ncn5C[C@H]4C)C3)c3c(Cl)cccc3c2)cc1` [Compound 103], for which the IC50 in test [1] (setting [5]), in test [2] (setting [6]), in test [3] (setting [7]) and in test [4] (setting [8]) was at most 100 nM throughout.
Regarding `COc1cc(N2CCc3c(nc(OC[C@@H]4CCCN4C)nc3N3Cc4cncn4C[C@H]3C)C2)c2c(Cl)cccc2c1` [Compound 85], the IC50 in test [1] (setting [5]) fell in the range of 1000 to 10000 nM; in test [2] (setting [6]), 100 to 1000 nM; in test [3] (setting [7]) it was 100 to 1000 nM; in test [4] (setting [8]), 100 to 1000 nM.
For the compound `CC(C)[C@@H](N)C(=O)Oc1cc(N2CCc3c(nc(OC[C@@H]4CCCN4C)nc3N3Cc4c(F)ncn4C[C@H]3C)C2)c2c(Cl)cccc2c1` [Compound 101], the IC50 in test [1] (setting [5]), in test [2] (setting [6]), in test [3] (setting [7]) and in test [4] (setting [8]) was at most 100 nM throughout.
`C[C@@H]1Cn2cnc(F)c2CN1c1nc(OC[C@@H]2CCCCN2C)nc2c1CCN(c1cccc3cccc(Cl)c13)C2` [Compound 99]: the IC50 in test [1] (setting [5]), in test [2] (setting [6]), in test [3] (setting [7]) and in test [4] (setting [8]) was at most 100 nM throughout.
For `C[C@@H]1Cn2cncc2CN1c1nc(OC[C@@H]2CCCN2C)nc2c1CCN(c1cccc3ccccc13)C2` [Compound 68], the IC50 in test [1] (setting [5]) was 100 to 1000 nM; in test [2] (setting [6]) it was at most 100 nM; in test [3] (setting [7]) it was at most 100 nM; in test [4] (setting [8]) it was at most 100 nM.
Regarding `C[C@@H]1Cn2cncc2CN1c1nc(OC[C@@H]2CCCN2C)nc2c1CCN(c1cccc3cccnc13)C2` [Compound 83], the IC50 was 100 to 1000 nM in test [1] (setting [5]), at most 100 nM in test [2] (setting [6]), at most 100 nM in test [3] (setting [7]) and at most 100 nM in test [4] (setting [8]).
Consider `CNC(=O)Oc1cc(N2CCc3c(nc(OC[C@@H]4CCCN4C)nc3N3Cc4c(F)ncn4C[C@H]3C)C2)c2c(Cl)cccc2c1` [Compound 98], for which the concentration for half-maximal inhibition (IC50) in test [1] (setting [5]), in test [2] (setting [6]), in test [3] (setting [7]) and in test [4] (setting [8]) was at most 100 nM throughout.
As for `C[C@@H]1Cn2cncc2CN1c1nc(OC[C@@H]2CCCN2C)nc2c1CCN(c1cccc3cccc(Cl)c13)C2` [Compound 44], the IC50 in test [1] (setting [9]) was 36 nM; in test [1] (setting [5]), at most 100 nM; in test [2] (Table 2, 120 hours incubation, read-out: IC50 SW480 (G12V)), 25 nM; in test [2] (setting [6]), at most 100 nM; in test [3] (setting [10]), 24 nM; in test [3] (setting [7]), at most 100 nM. Besides, the values for the 50% inhibitory concentration (IC50) in test [4] (setting [11]) and in test [4] (setting [8]) were 33 nM and at most 100 nM, respectively.
Turning to `C[C@@H]1Cn2cnc(F)c2CN1c1nc(OC[C@@H]2CCCN2C)nc2c1CCN(c1cc(OC(=O)N(C)C)cc3cccc(Cl)c13)C2` [Compound 97], the concentration for half-maximal inhibition (IC50) was 100 to 1000 nM in test [1] (setting [5]), at most 100 nM in test [2] (setting [6]), at most 100 nM in test [3] (setting [7]) and at most 100 nM in test [4] (setting [8]).
Regarding `C[C@@H]1Cn2cncc2CN1c1nc(OC[C@@H]2CCCN2C)nc2c1CCN(c1cc(OC(=O)N(C)C)cc3cccc(Cl)c13)C2` [Compound 82], the IC50 in test [1] (setting [5]) was 100 to 1000 nM; in test [2] (setting [6]), 100 to 1000 nM; in test [3] (setting [7]), at most 100 nM; in test [4] (setting [8]) it was 100 to 1000 nM.
With `CN1CCC[C@H]1COc1nc2c(c(N3CCn4c(cnc4Br)C3)n1)CCN(c1cccc3cccc(Cl)c13)C2` [Compound 49], the 50% inhibitory concentration (IC50) in test [1] (setting [5]) is 1000 to 10000 nM; in test [2] (setting [6]), 1000 to 10000 nM; in test [3] (setting [7]), 100 to 1000 nM; in test [4] (setting [8]), 100 to 1000 nM.
As for `CC[C@@H]1Cn2cncc2CN1c1nc(OC[C@@H]2CCCN2C)nc2c1CCN(c1cccc3cccc(Cl)c13)C2` [Compound 107], the IC50 in test [1] (setting [5]), in test [2] (setting [6]), in test [3] (setting [7]) and in test [4] (setting [8]) was at most 100 nM in each case.
Take `CN1CCC[C@H]1COc1nc2c(c(N3CCn4c(cnc4C4CC4)C3)n1)CCN(c1cccc3cccc(Cl)c13)C2` [Compound 53]: the half-inhibitory concentration (IC50) in test [1] (setting [5]), in test [2] (setting [6]), in test [3] (setting [7]) and in test [4] (setting [8]) was 1000 to 10000 nM each time.
For the compound `C[C@@H]1Cn2cnc(F)c2CN1c1nc(OC[C@@H]2CCCN2C)nc2c1CCN(c1cc(OC(=O)C(C)(C)C)cc3cccc(Cl)c13)C2` [Compound 96], the 50% inhibitory concentration (IC50) in test [2] (setting [6]) and in test [3] (setting [7]) was at most 100 nM in each case.
Turning to `C[C@@H]1Cn2cnc(F)c2CN1c1nc(OC[C@@H]2CCCN2C)nc2c1CCN(c1cc(NS(C)(=O)=O)cc3cccc(Cl)c13)C2` [Compound 112], the IC50 lay within 1000 to 10000 nM in test [1] (setting [5]), 100 to 1000 nM in test [2] (setting [6]), 100 to 1000 nM in test [3] (setting [7]) and 1000 to 10000 nM in test [4] (setting [8]).
With `C[C@@H]1Cn2cnc(F)c2CN1c1nc(OC[C@@H]2CCCN2C)nc2cc(-c3cccc4cccc(Cl)c34)ccc12` [Compound 88], the 50% inhibitory concentration (IC50) in test [1] (setting [5]) was 100 to 1000 nM; in test [2] (setting [6]) it was at most 100 nM; in test [3] (setting [7]), at most 100 nM; in test [4] (setting [8]), at most 100 nM.
On to `CCN1CCC[C@H]1COc1nc2c(c(N3Cc4cncn4C[C@H]3C)n1)CCN(c1cccc3cccc(Cl)c13)C2` [Compound 63], for which the IC50 is 100 to 1000 nM in test [1] (setting [5]), at most 100 nM in test [2] (setting [6]), at most 100 nM in test [3] (setting [7]) and at most 100 nM in test [4] (setting [8]).
With `Cc1ncn2c1CN(c1nc(OC[C@@H]3CCCN3C)nc3c1CCN(c1cccc4cccc(Cl)c14)C3)CC2` [Compound 41], the results for the IC50 in test [1] (setting [12]), in test [3] (setting [13]) and in test [4] (setting [14]) were 100 to 1000 nM, at most 100 nM and 100 to 1000 nM, respectively.
In the case of `C=Cc1ncc2n1CCN(c1nc(OC[C@@H]3CCCN3C)nc3c1CCN(c1cccc4ccccc14)C3)C2` [Comparative compound 3′, reference compound], the half-maximal inhibitory concentration (IC50) in test [1] (setting [9]) worked out at 1500 nM; in test [3] (setting [10]), 1180 nM; in test [4] (setting [11]), 1040 nM.
In the case of `C[C@@H]1Cn2cncc2CN1c1nc(OC[C@@H]2CCCN2C)nc2c1CCN(c1cc(OC(=O)C(C)(C)C)cc3cccc(Cl)c13)C2` [Compound 79], the half-maximal inhibitory concentration (IC50) in test [1] (setting [5]), in test [2] (setting [6]) and in test [3] (setting [7]) was at most 100 nM each time.
Take `CN1CCC[C@H]1COc1nc2c(c(N3CCn4cnc(C5CC5)c4C3)n1)CCN(c1cccc3cccc(Cl)c13)C2` [Compound 40]: the half-maximal inhibitory concentration (IC50) in test [1] (setting [12]), in test [3] (setting [13]) and in test [4] (setting [14]) was 100 to 1000 nM each time.
`CN1CCC[C@H]1COc1nc2c(c(N3CCn4cncc4C3)n1)CCN(c1cc(O)cc3ccccc13)C2` [Compound 43]: the half-inhibitory concentration (IC50) in test [3] (setting [7]) and in test [4] (setting [8]) was 100 to 1000 nM in each case.
As for `C=Cc1ncc2n1CCN(c1nc(OC[C@@H]3CCCN3C)nc3c1CCN(c1cccc4cccc(Cl)c14)C3)C2` [Comparative compound 2′, reference compound], the IC50 is 1610 nM in test [1] (setting [9]), 1480 nM in test [3] (setting [10]) and 1230 nM in test [4] (setting [11]).
